Laboratory results reported in patent publication US10364256B2 (GlaxoSmithKline Intellectual Property Development Limited, priority 2015, dated 2019).
pIC50: −log10 of the molar value.

How the values were obtained:
[1] = target: T1, Keap1 Kelch domain (321-609) / TAMRA-labeled 16mer NRF2 peptide (ETGE motif) (Homo sapiens, UniProt Q14145); experiment: NRF2-Keap1 FP Assay (Keap1 Kelch fluorescence polarization); type: binding; details: 20 nM Keap1 (321-609), 8 nM Tamra labeled peptide
T1 construct: the Kelch domain (321-609) of Keap1 is used
T1 sequence (Q14145 321-609): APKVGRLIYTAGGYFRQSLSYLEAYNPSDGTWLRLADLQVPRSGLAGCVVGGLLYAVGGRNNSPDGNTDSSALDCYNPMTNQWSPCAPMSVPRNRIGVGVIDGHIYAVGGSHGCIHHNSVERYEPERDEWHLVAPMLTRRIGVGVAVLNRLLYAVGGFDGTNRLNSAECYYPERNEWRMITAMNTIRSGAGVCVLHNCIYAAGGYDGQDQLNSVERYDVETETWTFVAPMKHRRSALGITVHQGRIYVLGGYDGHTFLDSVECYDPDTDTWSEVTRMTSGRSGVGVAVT
Outline: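 Compound dilutions (3-fold) were incubated 1 hr at room temperature with 20 nM Keap1 Kelch (321-609) and 8 nM TAMRA-labeled ETGE 16mer peptide. Buffer was 50 mM Tris pH 8.0, 100 mM NaCl, 5 mM MgCl2, 1 mM DTT, 2 mM CHAPS, 0.005% BSA. Fluorescence polarization (mP) was normalized to controls and fitted with a four-parameter equation to give pIC50.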

[2] = target: T2, full length Keap1 protein / full length NRF2 protein (Homo sapiens, UniProt Q14145); experiment: NRF2-Keap1 TR-FRET Assay; type: binding; details: 25 nM Keap1-FlagHis and 50 nM biotin-NRF2 added
T2 construct: full length NRF2 protein and full length Keap1 protein (Keap1 exists a dimer) are used; His
T2 sequence (Q14145 whole entry): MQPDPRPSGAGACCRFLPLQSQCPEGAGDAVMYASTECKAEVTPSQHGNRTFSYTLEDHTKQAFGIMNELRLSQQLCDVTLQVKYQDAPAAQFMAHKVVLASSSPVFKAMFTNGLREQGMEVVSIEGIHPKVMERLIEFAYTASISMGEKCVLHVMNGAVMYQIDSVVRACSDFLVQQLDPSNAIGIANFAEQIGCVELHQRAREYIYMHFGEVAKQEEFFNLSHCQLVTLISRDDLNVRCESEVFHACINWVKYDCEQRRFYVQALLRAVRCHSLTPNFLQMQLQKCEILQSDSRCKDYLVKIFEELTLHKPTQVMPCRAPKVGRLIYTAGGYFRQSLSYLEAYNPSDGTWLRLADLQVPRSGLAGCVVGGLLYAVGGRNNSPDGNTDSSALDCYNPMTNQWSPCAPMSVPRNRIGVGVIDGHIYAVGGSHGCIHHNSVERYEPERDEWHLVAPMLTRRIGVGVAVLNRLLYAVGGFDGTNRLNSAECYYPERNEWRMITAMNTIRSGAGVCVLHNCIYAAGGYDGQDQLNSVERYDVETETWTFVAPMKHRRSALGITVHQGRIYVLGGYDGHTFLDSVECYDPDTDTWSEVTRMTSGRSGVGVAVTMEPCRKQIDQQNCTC
Outline: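 Displacement of biotinylated full-length NRF2 from full-length Keap1 read by Eu/APC TR-FRET (665/615 nm) after 1 h detection at RT. Compound, 3-fold series, first incubated with Keap1 at 37 °C for 2.25 h, NRF2 then added at 4 °C for 1.25 h; pIC50 by four-parameter equation.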

Molecule	pIC50 [1]	pIC50 [2]
COCC1CCCCN1C(=O)c1cccc(-c2cccc(-n3ncc(C(=O)O)c3C3C[C@H]3c3cn(C)nn3)c2)c1F (mixture of isomers) [Example 264, 1-(3′-(2-(Methoxymethyl)piperidine-1-carbonyl)-2′-fluoro-[1,1′-biphenyl]-3-yl)-5-(trans-2-(1-methyl-1H-1,2,3-triazol-4-yl)cyclopropyl)-1H-pyrazole-4-carboxylic Acid]	7.00 to 8.00	7.00 to 8.00
CCC[C@@H]1CCCCN1C(=O)c1cccc(-c2cccc(-n3ncc(C(=O)O)c3CCc3cn(C)nn3)c2)c1F [Example 55, (R)-1-(2′-Fluoro-3′-(2-propylpiperidine-1-carbonyl)-[1,1′-biphenyl]-3-yl)-5-(2-(1-methyl-1H-1,2,3-triazol-4-yl)ethyl)-1H-pyrazole-4-carboxylic Acid]	7.00 to 8.00	7.00 to 8.00
C[C@@H]1CCC[C@H](C)N1C(=O)c1cccc(-c2cccc(-n3ncc(C(=O)O)c3[C@H]3C[C@@H]3c3cn(C)nn3)c2)c1F (single isomer, unassigned) [Example 261]	7.00 to 8.00	7.00 to 8.00
CC1(C)CCc2cnn(-c3cccc(-c4cccc(-n5ncc(C(=O)O)c5C(F)(F)F)c4)c3)c21 [Example 250, 1-(3′-(6,6-Dimethyl-5,6-dihydrocyclopenta[c]pyrazol-1(4H)-yl)-[1,1′-biphenyl]-3-yl)-5-(trifluoromethyl)-1H-pyrazole-4-carboxylic Acid]	6.00 to 7.00	4.00 to 5.00
CC1CCC(C)N(C(=O)c2cccc(-c3cccc(-n4ncc(C(=O)O)c4C4CC4)c3)c2F)C1 (centres unmarked) [Example 30, 5-Cyclopropyl-1-{3-[3-(2,5-dimethylpiperidine-1-carbonyl)-2-fluorophenyl]phenyl}-1H-pyrazole-4-carboxylic Acid]	7.00 to 8.00	5.00 to 6.00
1-(3′-((2-chlorocyclohexyl)methoxy)-[1,1′-biphenyl]-3-yl)-5-((1,2-trans)-2-(1-methyl-1H-1,2,3-triazol-4-yl)cyclopropyl)-1H-pyrazole-4-carboxylic acid [Example 186]	6.00 to 7.00	6.00 to 7.00
O=C(O)c1cnn(-c2cccc(-c3cccc(C(=O)N4C5CCCC4CCC5)c3F)c2)c1C1CC1 [Example 34, 1-[3-(3-{9-azabicyclo[3.3.1]nonane-9-carbonyl}-2-fluorophenyl)phenyl]-5-cyclopropyl-1H-pyrazole-4-carboxylic Acid]	7.00 to 8.00	6.00 to 7.00
CCC[C@@H]1CCCCN1C(=O)c1cccc(-c2cccc(-n3ncc(C(=O)O)c3C3CC3)c2)c1F [Example 54e, 5-Cyclopropyl-1-{3-[2-fluoro-3-((2-S)-2-propylpiperidine-1-carbonyl)phenyl]phenyl}-1H-pyrazole-4-carboxylic Acid]	6.00 to 7.00	5.00 to 6.00

Other lines, results leading:

pIC50 [1]	pIC50 [2]	Molecule
6.00 to 7.00	5.00 to 6.00	O=C(O)c1cnn(-c2cccc(-c3cccc(C(=O)N4CCCC5CCCCC54)c3F)c2)c1C1CC1 (centres unmarked) [Example 31, 5-Cyclopropyl-1-{3-[3-(decahydroquinoline-1-carbonyl)-2-fluorophenyl]phenyl}-1H-pyrazole-4-carboxylic Acid]
7.00 to 8.00	6.00 to 7.00	O=C(O)c1cnn(-c2cccc(-c3cccc(C(=O)N4CCCC5(CCCC5)C4)c3F)c2)c1C1CC1 [Example 35, 1-[3-(3-{7-Azaspiro[4.5]decane-7-carbonyl}-2-fluorophenyl)phenyl]-5-cyclopropyl-1H-pyrazole-4-carboxylic Acid]
6.00 to 7.00	6.00 to 7.00	CC(C)Oc1cccc(-c2cccc(-n3ncc(C(=O)O)c3C3CC3c3cn(C)nn3)c2)c1 (centres unmarked) [Example 59, 1-(3′-Isopropoxy-[1,1′-biphenyl]-3-yl)-5-(2-(1-methyl-1H-1,2,3-triazol-4-yl)cyclopropyl)-1H-pyrazole-4-carboxylic Acid]
7.00 to 8.00	6.00 to 7.00	CC1CC(C)CN(C(=O)c2cccc(-c3cccc(-n4ncc(C(=O)O)c4C4CC4)c3)c2F)C1 (centres unmarked) [Example 53, 5-Cyclopropyl-1-[3′-(3,5-dimethyl-piperidine-1-carbonyl)-2′-fluoro-biphenyl-3-yl]-1H-pyrazole-4-carboxylic Acid]
7.00 to 8.00	6.00 to 7.00	O=C(O)c1cnn(-c2cccc(-c3cccc(C(=O)N4CCCCC4C4CCCC4)c3F)c2)c1C1CC1 (centres unmarked) [Example 33, 1-{3-[3-(2-Cyclopentylpiperidine-1-carbonyl)-2-fluorophenyl]phenyl}-5-cyclopropyl-1H-pyrazole-4-carboxylic Acid]
